Test results reported in a melting point compilation (Tetko et al.; mined from patent text by program, amines drawn as free bases though some values may be those of a salt).

Row | melting point [°C] | Compound
1 | 193 to 195 | C=C(C(=O)c1c(OC)ccc(-c2cccs2)c1OC)c1ccc(C(=O)O)cc1
2 | 216 to 217 | O=C(NC(Cc1ccccc1F)C(=O)N1CCSC1)c1cc2cc(Cl)ccc2[nH]1 (configuration not stated)
3 | > 260 | O=C1CCN2C(=O)c3cccc(NC(=O)Nc4cc(O)c5ccccc5n4)c3C2C1 (configuration not stated)
4 | 161 to 162 | CCOC(=O)c1cnc2ccc(C#N)cc2c1NCc1ccc(OC)c(Cl)c1
5 | 162 to 165 | CCOC(=O)C1=Cc2cc(C(F)(F)C(F)(F)F)ccc2OC1C(F)(F)F (configuration not stated)
6 | > 280 | O=C(O)C=Cc1ccc(Oc2nsnc(Cl)c2=O)cc1
7 | 206 to 209 | CN(Cc1ccc(CCn2cnc3cc(-c4ccc(Cl)cc4)sc3c2=O)cc1)C(=O)OC(C)(C)C
8 | 114 to 115 | Cc1c(O)cccc1C(=O)N[C@@H](Cc1ccccc1)[C@H](O)C(=O)N1CSC(C)(C)[C@H]1C(=O)N[C@@H](C)c1ccccc1
9 | 169 to 171 | Nc1nc2ccccc2c2c1nc(CF)n2CC1(O)CCOC1 (configuration not stated)
10 | 186 to 188 | CCC(=O)Nc1nc(-c2ccc(OC(F)F)cc2)cs1
11 | 54 to 57 | CSCC(=O)N(C)C(C)=Nc1cn(-c2cccnc2)nc1C
12 | 56 to 57 | CC1(C)C(Cl)C(=O)C1CC(Cl)(Cl)Cl (configuration not stated)
13 | 140 to 141 | N#Cc1c(N2CCCCC2)c(C(=O)OCCO)c2ccccn2c1=O
14 | 113 to 114 | O=C1CCN(Cc2ccc3c(c2)OCO3)CC1C(c1ccccc1)c1ccccc1 (configuration not stated)
15 | 236 to 238 | Cc1cc(O)c2c3c(oc(=O)c2c1)C(=O)c1c(O)cccc1C3=O
16 | 96 to 97 | CCCCC(=NCC(=O)OCC)c1cc(Cl)ccc1N
17 | 116 to 118 | CC#CC(C)(C)NC(=O)C(CC)Oc1ccc2ncc(C#N)cc2c1 (configuration not stated)
18 | 74 to 75 | NC(=O)CCC(O)c1ccccc1 (configuration not stated)
19 | 165 to 167 | CC(=C(C#N)C(N)=O)c1ccc(Cl)cc1
20 | 179 to 181 | O=C(O)C=Cc1cccc2cc[nH]c12

Row | melting point [°C] | Compound
21 | 104 to 107 | CC1=C(C(=O)OC2CN(C(c3ccccc3)c3ccccc3)C2)C(c2cccc([N+](=O)[O-])c2)C(C(=O)OC(C)C)=C(N)N1 (configuration not stated)
22 | 52 to 53 | COCOc1ccc(C=O)c(O)c1
23 | 168 | CCOC(=O)c1cc(=O)c2ccc(NCc3ccccc3)c([N+](=O)[O-])c2o1
24 | 135 | N#CCCn1nc(-c2ccc(OCc3ccccc3)cc2)sc1=O
25 | 40 to 52 | CC(=O)C(C(C)=O)c1ccccc1
26 | 210 | COCc1nc2c(OC)ccc(C(O)(Cc3ccncc3)Cc3ccncc3)c2[nH]1
27 | 59 to 61 | C(=Nn1ccnc1N1CCOCC1)c1ccccc1
28 | 221 | COC(=O)c1cn(-c2ccc(C3=NOC(NC(C)=O)C3)cc2F)nn1 (configuration not stated)
29 | 149 | C=CCOc1ccc(-c2ccc(C(=O)OC)cc2)cc1
30 | 130 to 132 | COc1cc(C(=O)N2CCN(C(=O)C3=Cc4cc(OCc5ccccc5)c(OCc5ccccc5)cc4CCC3)CC2)cc(OC)c1OC
31 | 180 to 182 | CCCCc1oc2ccc(CO)cc2c1C(=O)c1ccc(O)cc1
32 | 136 to 138 | COC(=O)C(=O)c1ccc(OCCOc2ccc3ccccc3c2)c(F)c1
33 | 90 to 91 | CCOC(=O)COc1nc(-c2ccccc2)nc(C)c1C
34 | 104 to 106 | CCCCCCCCCCNC(=O)c1ccc(N(CC(=O)OC)CC(=O)OC)cc1
35 | 128 to 130 | COc1cc2ccc(S(=O)(=O)Cl)cc2cc1OC
36 | > 300 | O=C(O)c1ccc(-c2csc(-c3cccnc3)n2)cc1
37 | 128 | CCc1nc2c(C)cc(C)nc2n1-c1ccc(CC(C)NC(=O)NS(=O)(=O)c2ccc(C)cc2)cc1 (configuration not stated)
38 | 185 to 188 | COc1cc(C(=O)c2ccc([N+](=O)[O-])cc2)c(CC(=O)O)cc1Cl
39 | 200 to 201 | Cc1c(C#N)c(-c2ccc(C#N)cc2)c(C)n1Cc1cnc(Cl)c(C(O)C(F)(F)F)c1 (configuration not stated)
40 | 124 to 126 | CC(=O)c1ccc(OCCCOc2cc(N)c(C)cc2Br)c(CCC(F)(F)F)c1O

The next lines start with the molecule.

Row | Compound | melting point [°C]
41 | O=C(c1ccc(Br)cc1)c1cc2c(ccc3ccccc32)oc1=O | 213 to 215
42 | CCOC(=O)C(OS(N)(=O)=O)c1ccccc1 (configuration not stated) | 91 to 93
43 | COC(=O)c1cc(I)c[nH]1 | 77 to 78
44 | COc1c(C)c(Cl)c(C)c(Cl)c1CNC(=O)CCl | 205 to 206
45 | CNC(=O)Nc1ccc2[nH]cc(CCN)c2c1 | 188 to 190
46 | CC12CC(N3CCCCC3)CCC1CCC1C2CCC2(C)C(O)C(N3CCCCC3)CC12 (configuration not stated) | 176 to 181
47 | CC(=O)Oc1cc(S(=O)(=O)Oc2ccc(C(=O)c3c(Cc4ccccc4)sc(C)c3C)cc2C2CCCC2)ccc1C(=O)O | 94 to 96
48 | CC(C)CN1C(=O)C(C)(C)C(=O)Nc2cc(C=O)ccc21 | 154 to 155
49 | COc1ccc(Nc2nc(NC3CCCCCC3)nc(Oc3ccc(I)cc3)n2)cc1Cl | 80 to 82
50 | CN(C)C(=O)c1nc2cnc3ccccc3c2[nH]1 | 284 to 286
51 | Cn1c2ccc(Cl)cc2c2c3ccccc3c(=O)[nH]c21 | > 300
52 | Cn1ncnc1COc1nn2c(-c3cccc(F)c3)nncc2c1-c1ccccc1F | 169 to 170
53 | CCOC(=O)Cc1ccc(CCC(NC(=O)OC)C(=O)O)cc1 (configuration not stated) | 108 to 110
54 | N=C(Nc1ccc(C2CCCC2)c(CN2CCC[C@H]2CO)c1)c1cccs1 | 132 to 133
55 | CC1(C)CC(=O)c2c(nc(Cc3ccc(N)cc3)c3[nH]c4ccccc4c23)C1 | 123 to 124
56 | CCc1cc(C)cc(CC)c1C1C(=O)CC2(CCOCC2)CC1=O | 139 to 141

Row | Compound | melting point [°C]
57 | C=CC(O)c1cccc(C=Cc2ccc3ccc(Cl)cc3n2)c1 (configuration not stated) | 110 to 112
58 | ON1CCC2(CC1)OC(c1ccccc1)c1ccccc12 (configuration not stated) | 184 to 187
59 | Cc1oc(-c2ccc(C(F)(F)F)cc2)nc1COc1ccc(S(=O)(=O)Cl)cc1 | 90 to 93
60 | CCOC(=O)C1=Cc2cc(C(O)C(F)(F)F)ccc2OC1C(F)(F)F (configuration not stated) | 114 to 120
61 | COCCOc1ccc(CCCOC(=O)NS(=O)(=O)c2ccc(Cl)cc2)c(Oc2ncc(C(F)(F)F)cc2Cl)c1 | 147 to 150
62 | CN(C)CC1CCN(c2nc(N3CCOCC3)c3ncnc(N(C)Cc4cccc5ccccc45)c3n2)CC1 | 158
63 | Cc1c2c(cn1C)NC(=O)C(O)N=C2c1ccccc1 (configuration not stated) | 243
64 | CN1C(=O)c2cnc(-c3ccccc3)nc2N(C(=O)CCl)c2ccccc21 | 189 to 190
65 | CCOP(=O)(CC(=O)Nc1cc2c(Nc3ccc(OCc4ccccn4)c(Cl)c3)ncnc2cn1)OCC | 113 to 116
66 | CCOC(=O)c1ncn2c1[C@@H]1CCCN1C(=O)c1c(Cl)cccc1-2 | 182 to 184
67 | O=C1NC(=O)C(N2C(=O)c3ccccc3C2=O)CC1O (configuration not stated) | 195 to 230
68 | COc1ccc(-c2cnc(N)c(Br)n2)cc1 | 166 to 170
69 | CCc1cc(=O)c2nc(Cl)ccc2[nH]1 | 269 to 270
70 | CCOC(=O)c1cnc2c([N+](=O)[O-])cc(CN3CCOCC3)cc2c1O | 214 to 216
71 | CC1=C(CC#N)CCc2ccccc21 | 48 to 49
72 | CC(=O)c1cccc(NC(=O)c2nnnn2Cc2ccccc2)c1O | 155 to 157
